Measurements as given in PubChem BioAssay AID743417 (Broad Institute, 2014).
Inconclusive results are not listed.

tested on: Clone20 osteoblast Shn3 3'UTR firefly luciferase, 24 h; assay: Schnurri-3 3'UTR-luciferase signal suppressors – cell-based, Clone20 osteoblasts, luminescence, dry powder, set 2, dose response (AID 743417)

SMILES	AC50 [nM]
C=CC[C@H](CC(=O)N(CCO)Cc1ccccc1)C(=O)NC[C@H](OC(=O)[C@@H](CC=C)Cc1ccc(F)cc1)c1ccccc1	10700
Cc1ccc(-n2ncc3c(N4CCN(c5ccc(F)cc5)CC4)ncnc32)c(C)c1	3240
CCOC(=O)c1cnc(-n2nc(C)cc2C)nc1NC1CCCCC1	3010
CC(C)(C)c1nc(NCCN2CCOCC2)c2nnn(Cc3ccccc3Cl)c2n1	8850
COc1ccccc1N1CCN(c2ncc(C(=O)N3CCN(c4cccc(Cl)c4)CC3)c3ccccc23)CC1	572
OCc1ccc(O)c2ncccc12	1660
Nc1ncnc2c1c(-c1ccc(Oc3ccccc3)cc1)cn2C1CCCC1	658
C=C1C(=O)[C@]23C[C@H]1CCC2[C@]1(C)CCC[C@@](C)(C(=O)O)C1C[C@@H]3O (some centres not stated)	1200
CCN(CC)CC(C)(C)C(=O)/C=C/c1ccc(/C=C/C(=O)C(C)(C)CN(CC)CC)cc1	468
CC1=C(C(=O)OC2CCCCC2)C(c2cccnc2)n2nnnc2N1 (configuration not stated)	3230
CCN(CC)c1ccc2c(c1)oc(=O)c1c(Cl)cc(=O)oc12	2220
CCN(CC)S(=O)(=O)c1cc(NC(=O)CNc2cccc(S(=O)(=O)N3CCOCC3)c2)ccc1C	2970
CC(=O)OCCCNc1cc(Sc2ccc(Cl)cc2)c2nonc2c1[N+](=O)[O-]	1140
CCc1ccc(O)c(CNCCNCc2cc(CC)ccc2O)c1	1380
O=C(Nc1cc2c3c(c1)C1CCCC1CN3CC1CCCC21)c1ccc([N+](=O)[O-])cc1 (configuration not stated)	2200
CN(C(=O)COc1ccccc1C(=O)NCCOc1ccccc1)c1ccccc1	1570
COc1cc(OC)c(OC)cc1/C=C1\CC(C)C/C(=C\c2cc(OC)c(OC)cc2OC)C1=O (configuration not stated)	3220
COc1ccc(CCNc2ncnc3sccc23)cc1OC	< 260
CC(=O)N1c2ccc(S(=O)(=O)N3CCC(C(=O)N4CCN(c5cccc(C(F)(F)F)c5)CC4)CC3)cc2CC1C (configuration not stated)	1280
O=C(c1cccc(S(=O)(=O)N2CCN(c3ccc(F)cc3)CC2)c1)N1CCCC(C(F)(F)F)C1 (configuration not stated)	942
O=C1C=CC(=O)N1CCNc1ncc(C(F)(F)F)cc1Cl	947
CCN(CC)C(=S)Sc1c(-c2ccccc2)c2cc(Cl)ccc2[nH]c1=O	27000
COc1ccc(C[C@H]2NC[C@H](O)[C@H]2OC(C)=O)cc1	882
Cn1c(=O)c2[nH]c(CCCCCCCCc3nc4ccccc4[nH]3)nc2n(C)c1=O	3980
Cn1nc(-c2ccc(Cl)cc2)c2cc(C(=O)N3CCN(c4ccccn4)CC3)sc21	4020
C=C1CC2(OC1=O)c1ccccc1CCc1ccccc12	1280

SMILES	AC50 [nM]
Oc1ccccc1C(Nc1nccs1)c1ccc2cccnc2c1O (configuration not stated)	1130
Cc1c(C)c2ccc(OCC(=O)Nc3ccccn3)c(C)c2oc1=O	416
CN(C)c1ccc(/C=C/c2ccc3ccccc3n2)cc1	1330
COc1ccccc1CNc1nc(NCc2ccccc2SC)c2sccc2n1	4480
CCc1ccccc1NC(=O)COC(=O)c1c(C)nsc1NC	2480
CCCC(=O)NC(=S)Nc1ccc(N2CCN(C(=O)c3cccs3)CC2)cc1	10100
CCCCNc1nc2c(c(=O)n(C)c(=O)n2C)n1Cc1cccc(OC)c1	284
CC(Oc1ccc(Cl)cc1Cl)c1nc(-c2ccc(NC(=O)c3ccncc3)cc2)no1 (configuration not stated)	3930
CN(CC(=O)Nc1ccccc1Cl)C(=O)c1cccc(S(=O)(=O)N2CCN(c3ccc(F)cc3)CC2)c1	3620
CCCC(=O)NC(c1cccs1)c1cc(Cl)c2cccnc2c1O (configuration not stated)	3160
C/C(Cl)=C\Cn1c(NCCc2ccccc2)nc2c1c(=O)n(C)c(=O)n2C	283
CC1(Cc2ccc(OC(F)(F)F)cc2)C(=O)Nc2c(Cl)ccc(Cl)c21 (configuration not stated)	25700
COc1ccc(-c2noc(CCCCC(=O)N3CCN(c4cc(C)ccc4C)CC3)n2)cc1	1750
Cc1cc(Nc2cccc([N+](=O)[O-])c2)n2c(nc3ccccc32)c1C#N	1900
CC(C)C[C@@H](CN1CCCC1CN1C(=S)NC[C@@H]1Cc1ccc(O)cc1)N1C[C@H](Cc2ccc(O)cc2)N(CC2CCCCCC2)C1=S (some centres not stated)	18800
CC(=O)NC(c1ccc(Cl)cc1)c1ccc2cccnc2c1O (configuration not stated)	299
CCN(CCCl)c1cc(CN(C)C)cc(NC(=O)c2ccc(C(=O)Nc3cc(CN(C)C)cc(N(CC)CCCl)c3)cc2)c1	2650
COc1ccc(CCNc2ncnc3c2oc2ccccc23)cc1OC	524
Cc1ccc(NC(=O)c2cc3ccccc3oc2=O)cc1S(=O)(=O)N(C)C	1290
COc1ccc(-c2ccc(Nc3ccc(S(=O)(=O)N4CCCC4)cc3)nn2)cc1OC	20100
CC(Sc1nc2ccccc2c(=O)n1C)C(=O)NC1CCCCC1C (configuration not stated)	3460
c1ccc(-c2ccc(-c3nc(-c4ccccn4)no3)cc2)cc1	3750
Oc1ccc(CN2CCCc3ccccc32)c2cccnc12	5400
Nc1nonc1C(=O)NCCNCc1cc(Br)ccc1OCc1ccccc1F	2500
O=c1[nH]c2ccccc2n1C1CCN(C(c2cccs2)c2nnnn2Cc2ccccc2)CC1 (configuration not stated)	2980
CCOC(=O)/C=C/C(=O)OCC(=O)NC(c1ccccc1)c1ccccc1	5140
